Source: US5962502A, “Polyamidic acid derivatives with antigastrin activity, a method for their preparation, and their pharmaceutical use” (priority 1993, dated 1999)
Several values for one entry are separate records, joined by “and”; a condition that tells them apart may be missing. Equal entries are not always repeated.

Tests used:
[1] = molecular target: T1, gastrin receptors or type-B cholecystokinin (CCK-B) receptors (Oryctolagus cuniculus, UniProt P46627); test: Inhibition of the gastrin-induced increase of cytosolic calcium in rabbit gastric mucous-membrane cells (Fura 2); format: cell-based; details: for Ratio IC50 Binding cortex / IC50 (gastric mucous cells): binding values taken from Table 3; for IC50, inhibition of the increase of cytosolic calcium: rabbit gastric mucous cells enriched in parietal cells, gastrin 5×10^-8
T1 construct: Rabbit gastric mucous-membrane cells were prepared by conventional techniques; endogenous in cells; host or cells: freshly isolated rabbit gastric mucosal cells, enriched by elutriation to about 70% parietal cells
T1 sequence (P46627 1-452): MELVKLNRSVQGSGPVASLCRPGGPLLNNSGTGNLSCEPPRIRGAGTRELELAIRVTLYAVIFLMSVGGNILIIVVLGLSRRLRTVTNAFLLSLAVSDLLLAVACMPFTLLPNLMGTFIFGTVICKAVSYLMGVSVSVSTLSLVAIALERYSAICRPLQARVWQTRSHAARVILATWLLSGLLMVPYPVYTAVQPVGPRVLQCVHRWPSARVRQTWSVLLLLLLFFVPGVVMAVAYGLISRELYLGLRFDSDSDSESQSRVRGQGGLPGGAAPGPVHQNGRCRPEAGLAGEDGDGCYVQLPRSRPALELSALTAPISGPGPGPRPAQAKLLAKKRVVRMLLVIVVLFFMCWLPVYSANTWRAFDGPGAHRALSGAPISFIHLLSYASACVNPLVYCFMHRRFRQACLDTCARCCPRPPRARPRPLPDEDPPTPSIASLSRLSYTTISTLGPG
Text: The parietal cells of the gastric mucous membrane are responsible for the secretion of HCl. They have specific membrane receptors which can be activated by gastrin and which have been defined as gastrin receptors or type-B cholecystokinin (CCK-B) receptors. Since it has been observed that the activation of the CCK-B receptors by gastrin leads to an increase in the cytosolic levels of calcium ions, a technique involving the measurement of the increase in intracellular calcium induced by gastrin in the presence and in the absence of the compounds of the invention was used as an index of the antigastrin activity of the compounds. Rabbit gastric mucous-membrane cells were prepared by conventional techniques with the use of collagenase and pronase as digestive enzymes. The cellular preparation obtained by the enzymatic digestion was composed of parietal cells, zymogen cells and mucous-membrane cells. […] The cells were then washed and resuspended in a saline solution buffered with HEPES containing, in mM: […] Each measurement was carried out on cells in suspension (0.8×10^6 /ml) at a thermostatically-controlled temperature of 37° C. and with constant magnetic stirring. The fluorescence was recorded with the use of a spectrofluorometer. The operative wavelengths were 340/380 nm for excitation and 505 nm for emission. […] Biol. Chem. 260 (1985), 3440]. […] The results thus obtained for some compounds of the invention are given in Table 4, which also gives an index derived from the ratio between the peripheral antigastrin activity just described and the displacement activity found in the test on binding to the guinea-pig cortex receptors described above.

mouse = test: Black and White Box test in the mouse (anxiolytic activity); format: in vivo; details: for LIGHT TIME TOTAL TIME / LIGHT-DARK MOVEMENTS / MOV. DARK % TOTAL MOV. / TOTAL MOVEMENTS: 5 minutes
Method: It has recently been postulated that the central CCK-B receptor has an important role in anxiety. This is in accordance with studies also carried out in man, which have shown that the central CCK-B mechanisms have an important function in the mediation of panic attacks [Bradwejn, H. et al; J. Psychopharmacology 6 (1992), 345]. […] This experimental model, which was carried out according to Costall et al [Pharm. Biochem. Behav. 32 (1989), 777-785], used a box with dimensions of 45×21×21(h) cm divided into 2 compartments which communicated with one another through a 13×5 cm hole. The smaller compartment (1/3 of the total area) had black walls, whereas the larger had transparent walls and was illuminated by a lamp which was placed 20 cm above the box and supplied light at 20W. Under the floor there was an activity meter which recorded the movements performed by the animal in the individual compartments. The experiment was started by placing the animal in the centre of the illuminated box; as well as movements, the time which the animal spent in the dark and in the light areas and the number of movements between the 2 compartments were then recorded for 5 minutes. A control animal generally preferred to stay in the dark compartment where it felt better protected from an unusual environmental situation which put it in a state of anxiety. In this experimental model, a compound having anxiolytic activity decreased the % of movements into the dark in comparison with the total movements, increased the movements between the two light-dark compartments, and increased the % of time spent in the light in comparison with the total time.
The results obtained are shown in Table 7, where the activities obtained with compounds 9, 21 and 51 are given, tested in comparison with diazepam.

[2] = system: acid secretion induced by pentagastrin; test: Acid secretion induced by pentagastrin in the anaesthetized rat; format: in vivo; details: iv, 1 h, I.V. bolus, pentagastrin 30 mcg/kg/h, read-out: Activity (ID50), inhibition of the acid secretion induced by pentagastrin
Method: The activity of the compounds of the invention against gastric secretion performed by means of a mechanism with an antigastrin effect, was examined in vivo in anaesthetized rats with the use of male animals weighing about 200 g. Gastric secretion was stimulated with pentagastrin and Lai's method [Gut 5, (1964), 327-341 ] was used, with slight modification.
After tracheotomy, the oesophagus and duodenum were cannulated. A tepid solution (37° C.) of 0.25 mM NaOH was perfused and was passed through the stomach by means of a peristaltic pump at a constant flow-rate of 1 ml/minute. After stabilization for 20 minutes, the stimulant, dissolved in a physiological solution, was perfused for 120 minutes at a dose of 30 mcg/kg/h, in a volume of 0.95 ml/hour. After perfusion for 60 minutes (the basal stimulation), the product under test was administered intravenously (I.V.) as a bolus and perfusion of the stimulant was continued for a further 60 minutes. The acid secretion was recorded continuously as a function of time.
The activity of the product was evaluated as the percentage reduction of secreted acidity after the administration of the product, in comparison with the basal acidity measured during the first 60 minutes of collection in the presence of pentagastrin alone.
The antagonistic compounds tested were administered in various doses so that an ID50, that is, the dose (in mg/kg I.V.) which could inhibit the effect of pentagastrin by 50%, could be calculated.

central CCK-B receptor = molecular target: T2, central CCK-B receptor (Cavia porcellus, UniProt H0VZC5); test: Inhibition of the binding of [3-H][N-methyl-N-leucine]CCK-8 to guinea-pig cortical membranes; details: guinea-pig cortical membranes, 150 minutes at 25° C.
T2 construct: Cerebral cortices of male white guinea-pigs were thus used; from tissue; host or cells: cerebral cortex membranes of male white guinea-pigs
T2 sequence (H0VZC5 1-426): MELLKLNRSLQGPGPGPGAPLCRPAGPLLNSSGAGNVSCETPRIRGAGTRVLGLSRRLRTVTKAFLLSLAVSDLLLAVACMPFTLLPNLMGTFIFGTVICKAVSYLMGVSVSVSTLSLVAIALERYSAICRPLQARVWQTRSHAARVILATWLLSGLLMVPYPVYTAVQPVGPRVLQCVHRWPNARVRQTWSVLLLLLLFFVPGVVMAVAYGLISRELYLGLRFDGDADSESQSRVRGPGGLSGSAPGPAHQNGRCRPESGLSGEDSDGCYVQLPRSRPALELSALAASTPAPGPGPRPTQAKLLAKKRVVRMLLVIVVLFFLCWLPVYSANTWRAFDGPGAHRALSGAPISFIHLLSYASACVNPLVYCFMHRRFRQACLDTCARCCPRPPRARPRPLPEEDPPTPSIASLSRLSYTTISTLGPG
Method: The ability of the compounds of the invention to interact with the central CCK-B receptor was evaluated with the use of non-sulphated [3-H] […] 225 (3) (1990), 1278-1286].
Cerebral cortices of male white guinea-pigs were thus used, according to the method mentioned above, so as to obtain a membrane content corresponding to about 300 mcg of proteins/ml. The membranes were incubated together with the radioactive tracer and the compounds under test for 150 minutes at 25° C. After the supernatant had been discarded, the radioactivity associated with the pellet was determined with a liquid scintillator. The specific binding was determined as the difference between the binding in the absence and in the presence of 5.10^-6 M CCK-8.

**Q.** For `CN(C(=O)CC[C@@H](NC(=O)c1cc(Cl)cc(Cl)c1)C(=O)N1CCC2(CCCC2)CC1)c1ccccc1C(=O)O` [Compound 51], which “Ratio IC50 Binding cortex / IC50 (gastric mucous cells)” value [1] is on record?
**A.** 2.4

**Q.** What about the “IC50, inhibition of the increase of cytosolic calcium” value [1] of the same molecule?
**A.** 50 nM

**Q.** And the “EFF. % VS CONTROL (LIGHT TIME TOTAL TIME)” value (mouse; 0.1 mg/kg IP)?
**A.** 12%

**Q.** What about the “EFF. % VS CONTROL (LIGHT-DARK MOVEMENTS)” value (mouse; 0.1 mg/kg IP) of the same molecule?
**A.** 19%

**Q.** What about the “EFF. % VS CONTROL (MOV. DARK % TOTAL MOV.)” value (mouse; 0.1 mg/kg IP) of the same molecule?
**A.** -12%

**Q.** What about the “LIGHT TIME TOTAL TIME” value (mouse; 0.1 mg/kg IP) of the same molecule?
**A.** 27.0%

**Q.** And the “LIGHT-DARK MOVEMENTS” value (mouse; 0.1 mg/kg IP)?
**A.** 17.6

**Q.** And the “MOV. DARK % TOTAL MOV.” value (mouse; 0.1 mg/kg IP)?
**A.** 61%

**Q.** What about the “TOTAL MOVEMENTS” value (mouse; 0.1 mg/kg IP) of the same molecule?
**A.** 472

**Q.** What about the “EFF. % VS CONTROL (LIGHT TIME TOTAL TIME)” value (mouse; 1.0 mg/kg IP) of the same molecule?
**A.** 48%

**Q.** And the “EFF. % VS CONTROL (LIGHT-DARK MOVEMENTS)” value (mouse; 1.0 mg/kg IP)?
**A.** 34%

**Q.** What about the “EFF. % VS CONTROL (MOV. DARK % TOTAL MOV.)” value (mouse; 1.0 mg/kg IP) of the same molecule?
**A.** -14%

**Q.** What about the “LIGHT TIME TOTAL TIME” value (mouse; 1.0 mg/kg IP) of the same molecule?
**A.** 35.6%

**Q.** And the “LIGHT-DARK MOVEMENTS” value (mouse; 1.0 mg/kg IP)?
**A.** 19.8

**Q.** What about the “MOV. DARK % TOTAL MOV.” value (mouse; 1.0 mg/kg IP) of the same molecule?
**A.** 59%

**Q.** And the “TOTAL MOVEMENTS” value (mouse; 1.0 mg/kg IP)?
**A.** 484

**Q.** And the “EFF. % VS CONTROL (LIGHT TIME TOTAL TIME)” value (mouse; 10.0 mg/kg IP)?
**A.** 16%

**Q.** And the “EFF. % VS CONTROL (LIGHT-DARK MOVEMENTS)” value (mouse; 10.0 mg/kg IP)?
**A.** 37%

**Q.** And the “EFF. % VS CONTROL (MOV. DARK % TOTAL MOV.)” value (mouse; 10.0 mg/kg IP)?
**A.** -10%

**Q.** What about the “LIGHT TIME TOTAL TIME” value (mouse; 10.0 mg/kg IP) of the same molecule?
**A.** 27.8%

**Q.** What about the “LIGHT-DARK MOVEMENTS” value (mouse; 10.0 mg/kg IP) of the same molecule?
**A.** 20.3

**Q.** What about the “MOV. DARK % TOTAL MOV.” value (mouse; 10.0 mg/kg IP) of the same molecule?
**A.** 62%

**Q.** What about the “TOTAL MOVEMENTS” value (mouse; 10.0 mg/kg IP) of the same molecule?
**A.** 436

**Q.** And the “anxiolytic activity, result in words” value (mouse; Black and White Box test, IP)?
**A.** anxiolytic activity without sedative activity

**Q.** What about the “increase in the number of light-dark movements in comparison with the controls” value (mouse; summary over doses) of the same molecule?
**A.** 20-30%

**Q.** And the ED50 [2]?
**A.** 9 mg/kg and 15.7 µmol/kg

**Q.** And the IC50 (central CCK-B receptor)?
**A.** 120 nM

**Q.** Which results are given for `CN(Cc1ccccc1)C(=O)[C@@H](CCC(=O)O)NC(=O)CC[C@@H](NC(=O)c1cc(Cl)cc(Cl)c1)C(=O)N1CCC2(CCCC2)CC1` [Compound 38]?
**A.** Ratio IC50 Binding cortex / IC50 (gastric mucous cells) [1]: 6.0; IC50, inhibition of the increase of cytosolic calcium [1]: 30 nM; ED50 [2]: 7 mg/kg and 10.4 µmol/kg; IC50 (central CCK-B receptor): 180 nM

**Q.** `O=C(N[C@H](CCC(=O)N1CCCC(C(=O)O)C1)C(=O)N1CCC2(CCCC2)CC1)c1cc(Cl)cc(Cl)c1` (stereo partly drawn) [Compound 58, (R)-1-(piperidine-3-carboxy)-1-oxo-5-(8-azaspiro[4.5]decan-8-yl)-4-(3,5-dichloro-benzoylamino)-5-oxopentanoic acid] was tested. Which “Ratio IC50 Binding cortex / IC50 (gastric mucous cells)” value [1] did it give?
**A.** 1.9

**Q.** What about the “IC50, inhibition of the increase of cytosolic calcium” value [1] of the same molecule?
**A.** 330 nM

**Q.** And the ED50 [2]?
**A.** 10.1 mg/kg and 18.3 µmol/kg

**Q.** And the IC50 (central CCK-B receptor)?
**A.** 640 nM
